The test system of one data set is NLRP3 inflammasome. Nature of the data set: IL-1β secretion assay (LPS-primed, nigericin-activated THP-1 cells, MSD readout). Format: cell-based. Particulars: Homo sapiens, read-out: IL1b IC50. The procedure, abridged: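 THP-1 monocytes primed with LPS (10 ng/mL, 3 h, 37 °C), then co-incubated 2 h with serially diluted compound and nigericin 10 μM (final). Supernatant IL-1β measured by MSD electrochemiluminescence immunoassay. IC50 derived from four-parameter logistic fit of % inhibition versus concentration.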

The test system of the next data set is TNF-α secretion. The data set can be described thus: TNF-α secretion assay (PMA-differentiated THP-1 cells, LPS-triggered, MSD readout). Type of data set: cell-based. Particulars: Homo sapiens, LPS 24 h; for inhibition at 3 µM: compound at 3 μM; for inhibition at 10 µM: compound at 10 μM. On the procedure: Monocytic THP-1 cells (DSMZ) were maintained in RPMI media (RPMI 1640 Medium (1×) +10% FBS, biowest S181H). Cells were then differentiated at 160,000 cells per well in 96-well flat bottom cell culture plates with RPMI+0.1% Bovine Serum Albumin solution and 0.5 μM phorbol 12-myristate 13-acetate (PMA; Sigma, ref:P8139) overnight at 37° C. Experimental compounds were prepared and added as described above. TNF-α secretion was triggered by the addition of 0.5 μg/mL LPS (invivoGen, tlrl-3pelps) and cells were incubated for 24 h. 2.5 μL supernatant was removed, and TNF-α levels were monitored using an MSD assay (mesoscale, K15049) according to manufacturers' instructions.
IC50 values were calculated from the plot of percentage of inhibition versus the inhibitor concentration by a logistics fit according to: y=A2+(A1−A2)/(1+(x/IC50)^p) where y is the %-inhibition at the inhibitor concentration, x. A1 is the lowest inhibition value, i.e., 0%, and A2 the maximum inhibition value, i.e., 100%. The exponent, p, is the Hill coefficient. The curve fitting was conducted with an internally developed software.

Data set [1] can be described thus: Brain over plasma ratio evaluation. Particulars: mouse, brain and plasma, iv; female C57B16 mice, single i.v. 1 mg/kg, 0.25 h post dosing, geometric mean of 3 animals. Format: in vivo. On the procedure:
Brain Over Plasma Ratio Evaluation
A solution of 3 mg of compound in a generic vehicle (Glycofurol/solutol/Dextrose 5%: 10%/5%/85%, adjusted at pH3), final concentration 0.2 mg/ml, are stirred overnight at ambient temperature whilst protected from light.
Female C57B16 mice between the ages of 8-12 weeks are administered with the prepared solution, as single intravenous dose of 1 mg/kg into the tail vein with a dose volume of 5 ml/kg. A total of 3 animal replicates are evaluated for each compound utilizing a terminal sampling approach. After 0.25 h post dosing, under anesthesia, 400 μL of blood and the whole brain are collected. Blood sample is centrifuged at 4° C. for 10 minutes at 1500 g; brain is weighted, homogenized using deionized water to give a final ratio of (1/2:w/v). Plasma and brain concentrations are measured by an exploratory LC-MS/MS method.
Individual brain over plasma concentration ratio is calculated for each animal, and geometric mean value is reported.

The record followed here is patent US20250129091A1, “THIENOPYRROLOTRIAZINE COMPOUNDS, THEIR PREPARATION AND THEIR THERAPEUTIC USE” (Sanofi, priority 2022, published 2025).

Like-named read-outs stand apart in the source and are kept apart here.

As a reminder, the IC50 is the concentration that inhibits the measured activity by half. Usually inhibition stands for the relative decrease from the control value, in per cent. The term Kp denotes tissue or fluid exposure divided by exposure in the circulation.

Turning to `CC(C)c1nn(CC(=O)N[C@@H]2CCCN(C3CCC3)C2)c(=O)c2cc3ccsc3n12.O=CO` [Example 11, (R)—N-(1-cyclobutylpiperidin-3-yl)-2-(8-isopropyl-5-oxothieno[3′,2′:4,5]pyrrolo[1,2-d][1,2,4]triazin-6(5H)-yl)acetamide formate], the IC50 in the data set on NLRP3 inflammasome (THP-1, LPS-primed) was 45 nM. In addition, in the data set on TNF-α secretion, the inhibition at 3 µM was determined as 20.1% and the inhibition at 10 µM was -12.7%. Further, the Kp at 0.25 h in data set [1] was determined as 3.2.

Take `CC(C)c1nn(CC(=O)NC2CCCN(C(C)(C)C)C2)c(=O)c2cc3cc(Br)sc3n12` (centres unmarked) [Example 59, 2-(4-bromo-12-isopropyl-9-oxo-3-thia-1,10,11-triazatricyclo[6.4.0.02,6]dodeca-2(6),4,7,11-tetraen-10-yl)-N-(1-tert-butyl-3-piperidyl)acetamide]: the IC50 in the data set with NLRP3 inflammasome (THP-1, LPS-primed) amounted to 34 nM. Besides, in data set [1], the Kp at 0.25 h was 1.15.

For `CC(C)c1nn(CC(=O)N[C@@H]2CCCN(C3CCC3)C2)c(=O)c2cc3cc(Cl)sc3n12.O=CO` [Example 10, (R)-2-(2-chloro-8-isopropyl-5-oxothieno[3′,2′:4,5]pyrrolo[1,2-d][1,2,4]triazin-6(5H)-yl)-N-(1-cyclobutylpiperidin-3-yl)acetamide formate], the concentration for half-maximal inhibition (IC50) in the data set on NLRP3 inflammasome (THP-1, LPS-primed) was found to be 101 nM. In the data set with TNF-α secretion, the inhibition at 3 µM turned out to be 3% and the inhibition at 10 µM was -11.9%. Moreover, in data set [1], the Kp at 0.25 h was 5.84.

In the case of `C=O.CC(C)c1nn(CC(=O)N[C@@H]2CCCN(CC3CC3(F)F)C2)c(=O)c2cc3ccsc3n12` (stereo partly drawn) [Example 18, N-((3R)-1-((2,2-difluorocyclopropyl)methyl)piperidin-3-yl)-2-(8-isopropyl-5-oxothieno [3′,2′:4,5]pyrrolo[1,2-d][1,2,4]triazin-6(5H)-yl)acetamide compound with formaldehyde], in the data set with NLRP3 inflammasome (LPS-primed), the concentration for half-maximal inhibition (IC50) came out at 236 nM. In addition, in the data set with TNF-α secretion, the inhibition at 3 µM was determined as 9.6% and the inhibition at 10 µM is 21.6%. Besides, in data set [1], the Kp at 0.25 h was 1.56.

Take `CC(C)c1nn(CC(=O)N[C@@H]2CCCN(CCCF)C2)c(=O)c2cc3ccsc3n12.O=CO` [Example 41, (R)—N-(1-(3-fluoropropyl)piperidin-3-yl)-2-(8-isopropyl-5-oxothieno[3′,2′:4,5]pyrrolo[1,2-d][1,2,4]triazin-6(5H)-yl)acetamide formate]: in the data set on NLRP3 inflammasome (THP-1, LPS-primed), the IC50 amounted to 37 nM. Besides, in data set [1], the partition ratio (Kp) at 0.25 h is 1.56.

Take `CC(C)c1nn(CC(=O)N[C@@H]2CCCN(CC3CC(F)(F)C3)C2)c(=O)c2cc3ccsc3n12.O=CO` [Example 43, (R)—N-(1-((3,3-difluorocyclobutyl)methyl)piperidin-3-yl)-2-(8-isopropyl-5-oxothieno [3′,2′:4,5]pyrrolo[1,2-d][1,2,4]triazin-6(5H)-yl)acetamide formate]: the IC50 in the data set with NLRP3 inflammasome (THP-1, LPS-primed) amounted to 133 nM. Further, the concentration ratio (Kp) at 0.25 h in data set [1] is 0.42.

On to `CC(C)c1nn(CC(=O)N[C@@H]2CCCN(C3CC3)C2)c(=O)c2cc3cc(Cl)sc3n12.O=C(O)C(F)(F)F` [Example 6, (R)-2-(2-chloro-8-isopropyl-5-oxothieno[3′,2′:4,5]pyrrolo[1,2-d][1,2,4]triazin-6(5H)-yl)-N-(1-cyclopropylpiperidin-3-yl)acetamide 2,2,2-trifluoroacetate], for which the half-inhibitory concentration (IC50) with NLRP3 inflammasome (THP-1, LPS-primed) is 158 nM. Also, the Kp at 0.25 h in data set [1] turned out to be 7.58.

Take `CC(C)c1nn(CC(=O)N[C@@H]2CCCN(C[C@H](C)O)C2)c(=O)c2cc3ccsc3n12` [Example 3, N—((R)-1-((S)-2-hydroxypropyl)piperidin-3-yl)-2-(8-isopropyl-5-oxothieno[3′,2′:4,5]pyrrolo[1,2-d][1,2,4]triazin-6(5H)-yl)acetamide]: the IC50 in the data set with NLRP3 inflammasome (THP-1, LPS-primed) came out at 335 nM. For the same molecule, in the data set on TNF-α secretion, the inhibition at 3 µM was determined as 3.1% and the inhibition at 10 µM was -8.2%.
